From patent publication US7057052B2, “Heterocyclic quinones as pharmaceutical agents” (Duke University, priority 2002, dated 2006)
Like-named read-outs stand apart in the source and are kept apart here.

Key:
Assay type in all cases: biochemical
Cdc25A = biological target: T1, Cdc25A (Homo sapiens, UniProt P30304); assay: Cdc25A phosphatase inhibition screen at 50 μM; conditions: read-out: Percent Inhibition at 50 uM compound, Cdc25 A
T1 sequence (P30304 1-524): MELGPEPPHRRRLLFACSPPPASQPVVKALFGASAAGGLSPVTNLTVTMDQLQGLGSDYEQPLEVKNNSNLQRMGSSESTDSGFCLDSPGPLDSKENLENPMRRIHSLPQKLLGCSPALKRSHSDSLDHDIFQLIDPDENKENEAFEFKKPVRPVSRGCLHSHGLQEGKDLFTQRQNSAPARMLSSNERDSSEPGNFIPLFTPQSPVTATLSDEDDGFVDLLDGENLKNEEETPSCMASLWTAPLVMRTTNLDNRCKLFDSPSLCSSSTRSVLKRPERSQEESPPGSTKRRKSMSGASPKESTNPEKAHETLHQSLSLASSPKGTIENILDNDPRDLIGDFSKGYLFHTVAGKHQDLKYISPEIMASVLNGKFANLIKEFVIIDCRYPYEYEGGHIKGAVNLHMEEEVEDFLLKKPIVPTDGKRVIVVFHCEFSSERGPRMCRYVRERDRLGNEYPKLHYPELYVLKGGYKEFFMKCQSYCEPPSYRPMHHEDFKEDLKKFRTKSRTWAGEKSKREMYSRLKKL
Method: (§1) Using procedures known to those skilled in the art, the compounds listed in Table 3 were screened against Cdc25A, Cdc25B, and Cdc25C at 50 μM. […] To analyze these effects further, the compounds were then screened against Cdc25B in a 3 pt. IC-50, using 1, 7 and 50 μM. Several of the compounds were also screened with an 8 pt. IC-50 process, using 0.1–10 μM, allowing determination of Hill slopes.

Cdc25B = biological target: T2, Cdc25B (Homo sapiens, UniProt P30305); assay: Cdc25B phosphatase inhibition (50 μM screen, 3 pt. and 8 pt. IC-50); conditions: for IC50: Cdc25B; for inhibition at 50 µM: read-out: Percent Inhibition at 50 uM compound, Cdc25 B
T2 sequence (P30305 1-580): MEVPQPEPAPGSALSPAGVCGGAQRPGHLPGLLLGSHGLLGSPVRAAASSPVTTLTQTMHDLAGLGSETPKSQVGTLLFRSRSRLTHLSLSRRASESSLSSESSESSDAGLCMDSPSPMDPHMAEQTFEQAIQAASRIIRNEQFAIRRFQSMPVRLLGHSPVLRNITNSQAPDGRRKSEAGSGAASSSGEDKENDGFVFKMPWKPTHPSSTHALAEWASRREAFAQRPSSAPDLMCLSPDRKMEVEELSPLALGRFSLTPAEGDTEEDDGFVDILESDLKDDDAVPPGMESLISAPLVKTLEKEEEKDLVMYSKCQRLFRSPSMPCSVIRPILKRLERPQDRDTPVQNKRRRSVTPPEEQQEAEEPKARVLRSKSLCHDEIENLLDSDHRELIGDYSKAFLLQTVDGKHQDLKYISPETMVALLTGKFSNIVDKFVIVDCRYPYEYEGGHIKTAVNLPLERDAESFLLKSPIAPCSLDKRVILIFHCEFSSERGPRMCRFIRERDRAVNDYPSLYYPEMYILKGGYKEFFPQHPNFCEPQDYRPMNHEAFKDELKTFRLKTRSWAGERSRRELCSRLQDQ
Method: as §1

Cdc25C = biological target: T3, Cdc25C (Homo sapiens, UniProt P30307); assay: Cdc25C phosphatase inhibition screen at 50 μM; conditions: read-out: Percent Inhibition at 50 uM compound, Cdc25 C
T3 sequence (P30307 1-473): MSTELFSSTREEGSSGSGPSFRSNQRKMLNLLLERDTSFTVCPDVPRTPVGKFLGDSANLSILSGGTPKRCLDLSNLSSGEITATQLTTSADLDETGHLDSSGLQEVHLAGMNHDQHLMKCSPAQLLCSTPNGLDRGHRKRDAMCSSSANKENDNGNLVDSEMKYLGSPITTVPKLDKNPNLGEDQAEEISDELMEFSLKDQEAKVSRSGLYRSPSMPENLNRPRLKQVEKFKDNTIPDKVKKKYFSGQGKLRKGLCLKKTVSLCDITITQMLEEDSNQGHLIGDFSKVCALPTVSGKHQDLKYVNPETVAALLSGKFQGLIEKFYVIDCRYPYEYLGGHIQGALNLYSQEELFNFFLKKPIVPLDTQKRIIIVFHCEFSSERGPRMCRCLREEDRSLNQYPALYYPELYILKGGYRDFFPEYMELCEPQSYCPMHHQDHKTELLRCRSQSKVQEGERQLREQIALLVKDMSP
Method: as §1

[1] = 3 pt. IC-50 using 1, 7 and 50 μM, read-out: IC50 (3 pt)
[2] = 8 pt. IC-50 using 0.1–10 μM, read-out: IC50 (8 pt)

inhibition at 50 µM (Cdc25A) | IC50 (Cdc25B; [1]) | IC50 (Cdc25B; [2]) | inhibition at 50 µM (Cdc25B) | inhibition at 50 µM (Cdc25C) | SMILES
91% | 2000 nM | 6800 nM | 48% | 90% | O=C1C=C(O)C(=O)C(c2c[nH]c3cc(F)ccc23)=C1O [5A, 2,5-dihydroxy-3-(6-fluoro-1H-indol-3-yl)-[1,4]-benzoquinone]
99% | 2400 nM | – | 92% | 81% | O=C1C=C(O)C(=O)C(c2c[nH]c3cc(Cl)ccc23)=C1O [5B, 2,5-dihydroxy-3-(6-chloro-1H-indol-3-yl)-[1,4]-benzoquinone]
89% | 1700 nM | – | 97% | 92% | O=C1C=C(O)C(=O)C(c2c[nH]c3cc(OCc4ccccc4)ccc23)=C1O [5C, 2,5-dihydroxy-3-(6-benzyloxy-1H-indol-3-yl)-[1,4]-benzoquinone]
80% | 32300 nM | – | 16% | 28% | Cc1ccc2c(C3=C(O)C(=O)C=C(O)C3=O)c[nH]c2c1 [5D, 2,5-dihydroxy-3-(6-methyl-1H-indol-3-yl)-[1,4]-benzoquinone]
29% | 125000 nM | – | 67% | 68% | COC1=CC(=O)C(OC)=C(c2c[nH]c3c(F)cccc23)C1=O [5E, 2,5-dimethoxy-3-(7-fluoro-1H-indol-3-yl)-[1,4]-benzoquinone]
92% | 38000 nM | – | 23% | 54% | O=C1C=C(O)C(=O)C(c2c[nH]c3c(Cl)cccc23)=C1O [5F, 2,5-dihydroxy-3-(7-chloro-1H-indol-3-yl)-[1,4]-benzoquinone]
93% | 2100 nM | – | 45% | 88% | O=C1C=C(O)C(=O)C(c2c[nH]c3c(Br)cccc23)=C1O [5G, 2,5-dihydroxy-3-(7-bromo-1H-indol-3-yl)-[1,4]-benzoquinone]
60% | 4200 nM | – | 0% | 1% | Cc1cccc2c(C3=C(O)C(=O)C=C(O)C3=O)c[nH]c12 [5H, 2,5-dihydroxy-3-(7-methyl-1H-indol-3-yl)-[1,4]-benzoquinone]
93% | 14100 nM | – | 23% | 79% | CCCc1cccc2c(C3=C(O)C(=O)C=C(O)C3=O)c[nH]c12 [6A, 2,5-dihydroxy-3-(7-propyl-1H-indol-3-yl)-[1,4]-benzoquinone]
100% | 2100 nM | – | 99% | 84% | CC(C)=CCc1cccc2c(C3=C(O)C(=O)C=C(O)C3=O)c[nH]c12 [6B, 2,5-dihydroxy-3-(7-prenyl-1H-indol-3-yl)-[1,4]-benzoquinone]
99% | 100 nM | 500 nM | 95% | 96% | CC(C)=CCC/C(C)=C/Cc1cccc2c(C3=C(O)C(=O)C=C(O)C3=O)c[nH]c12 [6C, 2,5-dihydroxy-3-(7-geranyl-1H-indol-3-yl)-[1,4]-benzoquinone]
86% | 100 nM | 500 nM | 89% | 85% | CC(C)=CCCC(C)=CCCC(C)=CCc1cccc2c(C3=C(O)C(=O)C=C(O)C3=O)c[nH]c12 [6D, 2,5-dihydroxy-3-(7-farnecyl-1H-indol-3-yl)-[1,4]-benzoquinone]
98% | 1700 nM | – | 97% | 98% | O=C1C=C(O)C(=O)C(c2c[nH]c3c(Cc4ccccc4)cccc23)=C1O [6E, 2,5-dihydroxy-3-(7-benzyl-1H-indol-3-yl)-[1,4]-benzoquinone]
90% | 600 nM | 1100 nM | 97% | 94% | Cc1ccccc1Cc1cccc2c(C3=C(O)C(=O)C=C(O)C3=O)c[nH]c12 [6F, 2,5-dihydroxy-3-[7-(2-methyl-benzyl)-1H-indol-3-yl]-[1,4]-benzoquinone]
96% | 2100 nM | – | 33% | 37% | CC(C)(C)c1cccc2c(C3=C(O)C(=O)C=C(O)C3=O)c[nH]c12 [6G, 2,5-dihydroxy-3-(7-tert-butyl-1H-indol-3-yl)-[1,4]-benzoquinone]
98% | 1400 nM | – | 92% | 91% | O=C1C=C(O)C(=O)C(c2c[nH]c3c(-c4ccccc4)cccc23)=C1O [6H, 2,5-dihydroxy-3-(7-phenyl-1H-indol-3-yl)-[1,4]-benzoquinone]
36% | 79500 nM | – | 15% | 13% | COc1cccc2c(C3=C(O)C(=O)C=C(O)C3=O)c[nH]c12 [7A, 2,5-dihydroxy-3-(7-methoxy-1H-indol-3-yl)-[1,4]-benzoquinone]
98% | 1600 nM | – | 97% | 85% | O=C1C=C(O)C(=O)C(c2c[nH]c3c(OCc4ccccc4)cccc23)=C1O [7B, 2,5-dihydroxy-3-(7-benzyloxy-1H-indol-3-yl)-[1,4]-benzoquinone]
61% | 16500 nM | – | 20% | 25% | Cc1ccc2[nH]c(C)c(C3=C(O)C(=O)C=C(O)C3=O)c2c1 [7C, 2,5-dihydroxy-3-(2,5-dimethyl-1H-indol-3-yl)-[1,4]-benzoquinone]
0% | 126000 nM | – | 0% | 31% | COc1ccc2[nH]c(C)c(C3=C(O)C(=O)C=C(O)C3=O)c2c1 [7D, 2,5-dihydroxy-3-(2-methyl-5-methoxy-1H-indol-3-yl)-[1,4]-benzoquinone]
91% | 52200 nM | – | 60% | 81% | Cc1[nH]c2ccc(Cl)cc2c1C1=C(O)C(=O)C=C(O)C1=O [7E, 2,5-dihydroxy-3-(2-methyl-5-chloro-1H-indol-3-yl)-[1,4]-benzoquinone]
46% | 207000 nM | – | 16% | 0% | Cc1ccc2c(C3=C(O)C(=O)C=C(O)C3=O)c(C)[nH]c2c1 [7F, 2,5-dihydroxy-3-(2,6-dimethyl-1H-indol-3-yl)-[1,4]-benzoquinone]
20% | 38500 nM | – | 0% | 0% | Cc1[nH]c2c(C)cccc2c1C1=C(O)C(=O)C=C(O)C1=O [7G, 2,5-dihydroxy-3-(2,7-dimethyl-1H-indol-3-yl)-[1,4]-benzoquinone]
96% | 3700 nM | – | 88% | 63% | O=C1C=C(O)C(=O)C(c2c[nH]c3cc4c(cc23)OCO4)=C1O [7H, 2,5-dihydroxy-3-(5,6-methylenedioxy-1H-indol-3-yl)-[1,4]-benzoquinone]
